What is called Ki is a measure of affinity in units of concentration, obtained from inhibition or displacement. The term pKi denotes the negative decadic logarithm of the Ki, by convention in mol/L.

This is an account of results in US7384934B2, “Piperazine substituted aryl benzodiazepines” (Eli Lilly and Company, priority 2002, dated 2008).

pKi: −log10 of the molar value. Read-outs that look alike come from different tables or passages of the source.

Test [1] has as its target T1, hypothalamic histamine H1 receptors (Rattus norvegicus, UniProt P31390).
T1 construct: from tissue; host or cells: hypothalamus of male Sprague Dawley rats
As to the kind of experiment: Histamine H1 ex vivo binding ([3H]-pyrilamine, rat hypothalamic homogenates). Format: in vivo. Conditions: rat hypothalamus; dose required to occupy 50% of histamine H1 receptors; 90 minutes after gavage. On the procedure: The in vivo potency of a compound to occupy hypothalamic histamine H1 receptors in the rat was determined using a histamine H1 ex vivo binding assay.
(§1) Male Sprague Dawley rats (Harlan Sprague Dawley, Inc., Indianapolis, Ind.) weighing 110 grams were fasted overnight. […] All other compounds were administered at 5 ml/kg in dilute lactic acid. Tissues were dissected, frozen on dry ice and stored at −70° C. prior to analysis.
Ex vivo binding of the histamine H1 antagonist [^3H]-pyrilamine (NEN Life Science Products) to rat hypothalamic homogenates was determined. Tissues were homogenized in 600 μl incubation buffer (50 mM sodium phosphate monobasic, pH 7.4) and pre-incubated 10 minutes at 37° C. to remove endogenous histamine. Triplicate tubes, each containing 100 μl homogenate, were combined with 1 ml buffer containing 3 nM [^3H]-pyrilamine and incubated 30 minutes at 25° C. […] [^3H]-pyrilamine binding was measured after separation filtration using a Brandell cell harvester with GF/C filters which had been soaked in 0.1% polyethylenimine. ED50 values were determined using the Allfit statistical program for displacement binding.

The next test concerns the target T2, dopamine D2 receptors (Rattus norvegicus, UniProt P61169).
T2 construct: from tissue; host or cells: male Sprague Dawley rats, nucleus accumbens (in vivo)
Kind of test: DOPAC concentrations in rat nucleus accumbens (in vivo D2 receptor blockade). Conditions: dose that increases DOPAC to 200% of control, 90 minutes after gavage. On the procedure: Antipsychotics are believed to exert at least part of their therapeutic effects through blockade of the dopamine D2 receptor. The ability of a compound to block dopamine D2 receptors in the rat in vivo was determined by measuring the effect of the compound on the level of DOPAC (3,4-dihydroxyphenylacetic acid), a metabolite of dopamine, in nucleus accumbeus of the rat. Dopamine D2 receptor antagonists increase the release of dopamine into the synapse due to blockade of the dopamine D2 autoreceptor. This increased release of dopamine cannot be directly measured, since the efficiency of the dopamine reuptake system prevents increases in synaptic dopamine concentrations. Instead, increases in the levels of the dopamine metabolites DOPAC (3,4-dihydroxyphenylacetic acid) and HVA (homovanillic acid) reflect increased neuronal dopaminergic activity in vivo.
as §1
Rat nucleus accumbens DOPAC (3,4-dihydroxyphenylacetic acid) concentrations were measured using high-pressure liquid chromatography with electrochemical detection (HPLC-EC). Tissues were sonicated in 1 ml 0.1N TCA. After centrifugation, a 25 µl aliquot of supernatant was injected onto a BDS Hypersyl C18 column (150×4.6 mm, Keystone Scientific). The elution buffer contained 75 mM sodium phosphate monobasic, 0.5 mM EDTA, 350 mg/L 1-octanesulfonate sodium, 7% acetonitrile (v/v) and 0.7% tetrahydrofuran (v/v), pH 3.0. The flow rate was 1.2 ml/min at 40° C. Peak heights were measured at 750 mV at 10 nA sensitivity and compared with samples containing known amounts of DOPAC standards.

The target in the next test is T3, Dopamine D2 receptor (Homo sapiens, UniProt P14416).
T3 construct: purchased Receptor Biology (now owned by NEN) RBHD2CM
T3 sequence (P14416 1-414 isoform P14416-2): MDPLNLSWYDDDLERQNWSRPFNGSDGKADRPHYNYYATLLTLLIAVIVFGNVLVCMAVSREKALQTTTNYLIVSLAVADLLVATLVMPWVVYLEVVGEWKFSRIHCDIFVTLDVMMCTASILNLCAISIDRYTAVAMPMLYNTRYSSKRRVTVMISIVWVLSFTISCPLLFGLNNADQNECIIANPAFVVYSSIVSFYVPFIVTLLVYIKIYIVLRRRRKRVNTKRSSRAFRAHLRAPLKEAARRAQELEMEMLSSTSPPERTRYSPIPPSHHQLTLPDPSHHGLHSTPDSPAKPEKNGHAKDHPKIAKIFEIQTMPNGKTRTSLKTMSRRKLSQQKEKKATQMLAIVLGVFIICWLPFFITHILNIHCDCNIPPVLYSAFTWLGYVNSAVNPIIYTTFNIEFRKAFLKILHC
Kind of test: Dopamine D2 receptor binding assay ([125I]iodospiperone).

Test [2] deals with T4, human Histamine-1 receptors (Homo sapiens, UniProt P35367).
T4 construct: expressed in transfected cells
T4 sequence (P35367 whole entry): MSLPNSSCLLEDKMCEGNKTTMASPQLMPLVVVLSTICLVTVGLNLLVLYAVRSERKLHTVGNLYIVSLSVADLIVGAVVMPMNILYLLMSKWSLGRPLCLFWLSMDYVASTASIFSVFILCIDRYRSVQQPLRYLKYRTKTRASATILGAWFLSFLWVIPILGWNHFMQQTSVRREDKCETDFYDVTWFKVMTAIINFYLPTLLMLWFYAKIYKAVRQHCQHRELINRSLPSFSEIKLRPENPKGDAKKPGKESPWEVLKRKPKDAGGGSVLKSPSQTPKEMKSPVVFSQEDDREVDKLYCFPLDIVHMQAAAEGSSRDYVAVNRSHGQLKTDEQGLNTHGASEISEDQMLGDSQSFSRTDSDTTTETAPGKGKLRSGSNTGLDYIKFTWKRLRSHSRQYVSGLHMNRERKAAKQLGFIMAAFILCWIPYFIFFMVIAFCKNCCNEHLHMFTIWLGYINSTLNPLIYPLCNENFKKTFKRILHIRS
As to the kind of experiment: 3H-Pyrilamine SPA binding to human Histamine-1 receptors. Conditions: read-out: Receptor affinity (Ki, nM) H1. Here is the method: Their ability of a compound to block histamine H1 receptors can be estimated in vitro by measuring the in vitro histamine H1 receptor affinity. […] The ratio of in vitro histamine H1 receptor affinity divided by the in vitro dopamine D2 receptor affinity, both expressed as Ki's, is an estimate of a compound's likelihood to cause weight gain at therapeutic levels. […] Incubations were performed in a total volume of 200 μl in 96 well assay plates. 50 μl ^3H-pyrilamine (NEN, 20 Ci/mmol, final concentration=3.0 nM) was added to 50 μl of test compounds dissolved in water (±DMSO and/or glacial acetic acid). 50 μl Wheat Germ Agglutinin (WGA) bead, at 1 mg/well, (Amersham Life Sciences) in assay buffer (67 mM TrisCl pH 7.4) were then added. Membrane homogenate from cells expressing human Histamine-1 receptors, approximately 700,000 cells/well, was added last. The plates were covered with sealing tape (FasCal) and allowed to incubate at room temperature for 2 hours. The plates were then centrifuged at approximately 200×g for 10 minutes at room temperature. The amount of ^3H-pyrilamine bound to the membranes, ie proximate to the WGA bead, was then determined using a Wallac MicroBeta Trilux Scintillation Counter (Wallac, Inc.).

T1 sequence (P31390 whole entry): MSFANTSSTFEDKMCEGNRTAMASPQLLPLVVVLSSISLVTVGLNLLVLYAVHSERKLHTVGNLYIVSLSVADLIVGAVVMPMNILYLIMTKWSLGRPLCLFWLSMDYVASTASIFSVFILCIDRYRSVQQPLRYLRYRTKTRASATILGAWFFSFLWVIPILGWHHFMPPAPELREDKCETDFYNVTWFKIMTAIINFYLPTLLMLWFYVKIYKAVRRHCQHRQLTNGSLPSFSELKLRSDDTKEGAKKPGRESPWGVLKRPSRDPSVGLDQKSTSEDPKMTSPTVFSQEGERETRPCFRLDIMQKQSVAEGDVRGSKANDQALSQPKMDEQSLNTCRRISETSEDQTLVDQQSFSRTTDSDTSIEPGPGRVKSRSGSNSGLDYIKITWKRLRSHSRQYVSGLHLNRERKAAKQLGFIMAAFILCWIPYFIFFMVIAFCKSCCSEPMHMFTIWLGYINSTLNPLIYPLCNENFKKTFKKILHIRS
T2 sequence (P61169 whole entry): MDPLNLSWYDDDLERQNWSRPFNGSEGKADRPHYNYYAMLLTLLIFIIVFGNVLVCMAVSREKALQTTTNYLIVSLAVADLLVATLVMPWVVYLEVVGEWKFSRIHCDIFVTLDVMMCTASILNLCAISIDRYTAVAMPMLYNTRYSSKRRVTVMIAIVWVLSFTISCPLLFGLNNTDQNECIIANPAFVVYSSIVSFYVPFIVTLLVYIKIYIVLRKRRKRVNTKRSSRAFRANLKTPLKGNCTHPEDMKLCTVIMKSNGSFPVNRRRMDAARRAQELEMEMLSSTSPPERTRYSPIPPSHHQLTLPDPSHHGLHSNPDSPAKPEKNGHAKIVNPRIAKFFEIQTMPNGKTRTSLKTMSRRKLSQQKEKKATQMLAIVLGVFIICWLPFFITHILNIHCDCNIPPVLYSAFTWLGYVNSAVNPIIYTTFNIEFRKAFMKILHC

Turning to `COCC[C@H]1CN(C2=Nc3ccccc3Nc3sc(C(C)C)nc32)CCN1C.Cl.Cl` [Example 327, (S)-10-[3-(2-Methoxyethyl)-4-methylpiperazin-1-yl]-2-isopropyl-4H-3-thia-1,4,9-triazabenzo[f]azulene dihydrochloride], the “In vivo activity H1: H1 ex vivo binding (ED50)” value in test [1] was >30 mg/kg, po. For the same molecule, the “In vivo activity D2: DOPAC elevation (ED200)” value on dopamine D2 receptors was 4 mg/kg, po. The Ki on Dopamine D2 receptor (read-out: Receptor affinity (Ki, nM) D2) amounted to 9 nM; in test [2] it was 91 nM. Also, on Dopamine D2 receptor (relative Ki scale of Table 5, read-out: Relative D2 Receptor Binding Affinity Ki), the pKi is greater than 8.00.
